Measurements published in PMC12142043, “Cell-based high-content approach for SARS-CoV-2 neutralization identifies unique monoclonal antibodies and PI3K pathway inhibitors” (Frontiers in Cell and Developmental Biology, 2025).
Structures can show the parent of a compound that is named as a salt. Where two headings read alike, the source gives them in different places.

Tested on: SARS-CoV-2 (USA-WA1/2020) in Calu-3 cells
Format: cell-based
[1] = high dose (10 µM), Calu-3, 48 h
[2] = low dose (100 nM), Calu-3, 48 h

Structure (SMILES) | dsRNA signal, AU High [1] [AU] | dsRNA signal, AU Low [2] [AU] | dsRNA signal, AU High | dsRNA signal, AU Low
COc1ccc(-c2ccc3c(N4CCOC[C@@H]4C)nc(N4CCOC[C@@H]4C)nc3n2)cc1CO [AZD8055] | 0.0 | 39910.8 | – | –
Cn1cc(-c2[nH]c3cc(NC(=O)[C@H](N)C4CCCCC4)cc4c3c2C=NNC4=O)cn1 [PF-477736] | 45938.3 | 24364.8 | – | –
Cc1nc(Nc2cnn(C3CCNCC3)c2)nc2c1N(C)C(=O)c1cc3ccccc3cc1N2C [HTH-01-015] | 4731.3 | 21129.9 | – | –
COc1ccc(COc2ccc(Cc3cnc(N)nc3N)cc2OC)cc1 [GW2580] | 17974.9 | 13531.9 | – | –
Cc1cccc(-c2nn3c(c2-c2ccnc4ccc(C(N)=O)cc24)CCC3)n1 [LY2157299] | 33079.0 | 15107.1 | – | –
C=CC(=O)Nc1cccc(Nc2nc(Nc3ccc(OCCOC)cc3)ncc2F)c1 [AVL-292] | 20034.7 | 9433.9 | – | –
CCCC(=O)Nc1ncnc2c1ncn2[C@@H]1O[C@@H]2COP(=O)([O-])O[C@H]2[C@H]1OC(=O)CCC.[Na+] [Dibutyryl-cAMP, sodium salt] | 10702.1 | 55803.3 | – | –
CN(c1ncccc1CNc1nc(Nc2ccc3c(c2)CC(=O)N3)ncc1C(F)(F)F)S(C)(=O)=O [PF-562271] | 0.0 | 690.0 | – | –
O=C1c2c(O)ccc(O)c2C(=O)c2c(NCCNCCO)ccc(NCCNCCO)c21 [Mitoxantrone HCl] | 48235.0 | 23848.1 | – | –
COc1cc2nccc(Oc3ccc(NC(=O)C4(C(=O)Nc5ccc(F)cc5)CC4)cc3)c2cc1OC [Cabozantinib (XL184, BMS-907351)] | 13075.8 | 39205.8 | – | –
COc1ccc(COc2cc3oc(=O)c4cc(C(C)O)ccc4c3cc2OC)cc1 (centres unmarked) [Palomid 529] | 5778.6 | 4358.2 | – | –
CC(C)=CCC[C@](C)(O[C@@H]1O[C@H](CO[C@@H]2O[C@H](CO)[C@@H](O)[C@H](O)[C@H]2O)[C@@H](O)[C@H](O)[C@H]1O)[C@H]1CC[C@]2(C)[C@@H]1[C@H](O)C[C@@H]1[C@@]3(C)CC[C@H](O[C@@H]4O[C@H](CO)[C@@H](O)[C@H](O)[C@H]4O[C@@H]4O[C@H](CO)[C@@H](O)[C@H](O)[C@H]4O)C(C)(C)[C@@H]3CC[C@]12C [Ginsenoside Rb1] | 7414.4 | 52585.8 | – | –
COc1cc2nccc(Oc3ccc(NC(=O)NC4CC4)c(Cl)c3)c2cc1C(N)=O [Lenvatinib (E7080)] | 26964.0 | 55504.0 | – | –
CCCCNc1ncc2c(-c3ccc(CN4CCN(C)CC4)cc3)cn([C@H]3CC[C@H](O)CC3)c2n1 [UNC2025] | 55553.7 | 67297.4 | – | –
O=C(c1ccc(F)c(F)c1Nc1ccc(I)cc1F)N1CC(O)([C@@H]2CCCCN2)C1 [Cobimetinib] | 1412.8 | 21814.8 | – | –
O=C(NCc1ccccc1)c1csc(Nc2ccncn2)n1 [Thiazovivin] | 2364.1 | 26827.3 | – | –
O=C1NC(=O)C(=Cc2ccc(-c3ccc(F)cc3)o2)S1 (stereo in doubt) [CAY10505] | 15375.8 | 16784.8 | – | –
O=C1c2c(O)cc(O)cc2O[C@H](c2cc(O)c(O)c(O)c2)[C@H]1O [Dihydromyricetin] | 20863.8 | 12380.4 | – | –
c1cc(Nc2cc(C3CC3)[nH]n2)nc(Nc2ccc3nc[nH]c3c2)n1 [APY29] | 1195.6 | 15781.0 | – | –
Cn1cc(-c2ccc(F)c(C(F)(F)F)c2)nc1C1CCN(c2ncnc3[nH]ncc23)CC1 [LY2584702] | 5638.3 | 15579.4 | – | –
CC(C)(O)/C=C/C(=O)[C@](C)(O)[C@H]1[C@H](O)C[C@@]2(C)[C@@H]3CC=C4[C@@H](C=C(O)C(=O)C4(C)C)[C@]3(C)C(=O)C[C@]12C [Cucurbitacin I] | 39627.9 | 39750.1 | – | –
Nc1cccc(S(=O)(=O)N2CCCN(S(=O)(=O)c3ccc4c(c3)OCCO4)CC2)c1 [DASA-58] | 7492.3 | 8577.3 | – | –
CO[C@H]1C[C@@H]2CC[C@@H](C)[C@@](O)(O2)C(=O)C(=O)N2CCCC[C@H]2C(=O)O[C@H]([C@H](C)C[C@@H]2CC[C@@H](OP(C)(C)=O)[C@H](OC)C2)CC(=O)[C@H](C)/C=C(\C)[C@@H](O)[C@@H](OC)C(=O)[C@H](C)C[C@H](C)/C=C/C=C/C=C/1C [Ridaforolimus (Deforolimus, MK-8669)] | 23072.2 | 31512.5 | – | –
Cc1c[nH]c2ccccc12 [3-Methylindole] | 0.0 | 1602.7 | – | –
Cc1ncc(-c2ccnc(Nc3ccc(S(C)(=O)=O)cc3)n2)n1C(C)C [AZD-5438] | 10643.7 | 32871.5 | – | –
CCc1c(C(=O)NNC(=O)C(O)c2cc(F)cc(F)c2)ccc(O)c1C (centres unmarked) [EMD638683] | 288.1 | 20264.2 | – | –

Structure (SMILES) | dsRNA signal, AU High [1] [AU] | dsRNA signal, AU Low [2] [AU] | dsRNA signal, AU High | dsRNA signal, AU Low
O=c1sn(-c2cccc3ccccc23)c(=O)n1Cc1ccccc1 [Tideglusib] | 352.7 | 1603.7 | – | –
COc1cc(N2CCC(O)CC2)ccc1Nc1cc(Nc2ccccc2S(=O)(=O)C(C)C)c2cc[nH]c2n1 [Mps1-IN-1] | 7290.6 | 34349.9 | – | –
Cc1cccc(CC(=O)N2CCc3c2ccc(-c2cn(C)c4ncnc(N)c24)c3F)n1 [GSK2656157] | 2371.9 | 33522.6 | – | –
O=C(O)c1cc(=O)c2c(OCC(O)COc3cccc4oc(C(=O)O)cc(=O)c34)cccc2o1 [Cromolyn sodium] | 64024.7 | 17957.1 | – | –
COc1cc2nccc(Oc3ccc(NC(=O)Nc4ccc(F)cc4F)c(F)c3)c2cc1OC [Ki8751] | 16810.1 | 45822.4 | – | –
CN1CCN(c2cccc(Nc3nc4c(-c5ccc(S(C)(=O)=O)cc5)cccn4n3)c2)CC1 [CEP-33779] | 12244.2 | 3458.4 | – | –
Cc1ccc2nc(NCCN)c3ncc(C)n3c2c1.Cl [BMS345541 hydrochloride] | 0.0 | 5872.9 | – | –
O=C(NCc1cccc(O)c1)Nc1nc(-c2ccncc2)cs1 [RKI-1447] | 1722.0 | 7250.9 | – | –
CC(C)(C)c1cc(C=C(C#N)C#N)cc(C(C)(C)C)c1O [Tyrphostin 9] | 58.0 | 17328.1 | – | –
FC(F)(F)c1ccc(/C=C/c2nc(COc3ccc(CCCCn4ccnn4)cc3)co2)cc1 [Mubritinib (TAK 165)] | – | – | 19342.6 | 48533.2
Cn1cc(-c2ccc3nnc(Sc4ccc5ncccc5c4)n3n2)cn1 [SGX-523] | 18702.9 | 25732.4 | – | –
N#C/C(=C/c1ccc(O)c(O)c1)C(=O)NCc1ccccc1 [AG-490] | 8748.3 | 4415.8 | – | –
O=C(Nc1ccc(CN2CCOCC2)cc1)c1ccc(-c2cccc(Cl)c2)o1 [CID 2011756] | 3490.5 | 12424.4 | – | –
CCN1/C(=C/C(C)=O)Sc2ccc(OC)cc21 [TG003] | 1126.7 | 61445.9 | – | –
CNC(=O)c1cc(Oc2ccc(NC(=O)Nc3ccc(Cl)c(C(F)(F)F)c3)c(F)c2)ccn1.Cl [Regorafenib hydrochloride] | 724.9 | 22021.0 | – | –
CN(C[C@@H]1COCCO1)S(=O)(=O)Nc1ccc2ccc3ncc(-c4cnn(C)c4)cc3c(=O)c2c1 [MK-2461] | 19211.6 | 2226.3 | – | –
Nc1nc(Nc2ccc(S(N)(=O)=O)cc2)nn1C(=O)c1c(F)cccc1F [JNJ-7706621] | 0.0 | 4378.3 | – | –
CNC(=O)c1ccccc1Sc1ccc2c(/C=C/c3ccccn3)n[nH]c2c1 [Axitinib (AG 013736)] | 42600.6 | 65444.2 | – | –
CCc1cnn2c(NCc3ccc[n+]([O-])c3)cc(N3CCCC[C@H]3CCO)nc12 [Dinaciclib (SCH727965)] | 10476.7 | 0.0 | – | –
CCCCCCCCCCCCCC(=O)O[C@@H]1[C@@H](C)[C@@]2(O)[C@@H](C=C(CO)C[C@]3(O)C(=O)C(C)=C[C@@H]23)[C@@H]2C(C)(C)[C@]12OC(C)=O | 6922.4 | 0.0 | – | –
C[C@@H]1O[C@@H](OC[C@H]2O[C@@H](Oc3cc(O)c4c(=O)cc(-c5ccc(O)cc5)oc4c3)[C@H](O[C@@H]3O[C@@H](C)[C@H](O)[C@@H](O)[C@H]3O)[C@@H](O)[C@@H]2O)[C@H](O)[C@H](O)[C@H]1O [Ligustroflavone] | 4049.2 | 6040.1 | – | –
O=S(=O)(N=Cc1c(O)ccc2ccccc12)c1cccs1 [STF 083010] | 54363.2 | 46405.9 | – | –
COc1ccc(S(=O)(=O)Nc2ccccc2CN(C)C/C=C/c2ccc(Cl)cc2)cc1.O=P(O)(O)O [KN-92 phosphate] | 4429.3 | 16946.8 | – | –
Nc1ncnc2n[nH]c(Nc3ccc(F)cc3)c12 [CGP 57380] | 1947.6 | 33084.2 | – | –
CN1CCC(COc2cnc(-c3cccc(Cn4nc(-c5cccc(C#N)c5)ccc4=O)c3)nc2)CC1 [EMD-1214063] | 14120.6 | 47689.1 | – | –
Cn1cnc(N)c2ncnc1-2 [3-Methyladenine] | 32357.3 | 26977.2 | – | –
